Like-named read-outs stand apart in the source and are kept apart here. Starred links: 1 amine or outer side, 2 acyl side, 3 side chain; linkers in the order of their positions; H or OH if unused. Positions of bridges follow the written chain, without caps; N, C: chain ends. Non-standard residues stand in square brackets, D forms with d. Residues, ends and D or L forms follow the SMILES beside them. ξ: configuration not given here. *: point of attachment. Bip(4'-NHCO-C6H4-4-CH2COOH) = N[C@@H](Cc1ccc(-c2ccc(NC(=O)c3ccc(CC(=O)O)cc3)cc2)cc1)C(=O)O; dArg(Nω-CH2C6H4-3-CH2Gua) = N=C(N)NCc1cccc(CNC(=N)NCCC[C@@H](N)C(=O)O)c1; Bip(4'-NH) = O=C([C@H](Cc1ccc(-c2ccc(N[*:3])cc2)cc1)N[*:1])[*:2]; dArg(ω-(3-HO-benzyl)) = N=C(NCCC[C@@H](N)C(=O)O)NCc1cccc(O)c1; Indazole3carbonyl(1-CH2COOH) = O=C(O)Cn1nc(C(=O)*)c2ccccc21; Bip(4'-COOH) = N[C@@H](Cc1ccc(-c2ccc(C(=O)O)cc2)cc1)C(=O)O; Bip(4'-NHAc) = CC(=O)Nc1ccc(-c2ccc(C[C@H](N)C(=O)O)cc2)cc1; X83 = N=C(NCCC[C@@H](N[*:1])C(=O)[*:2])NCCc1ccc(O)c(O)c1; X30 = N#Cc1ccc(CCNC(=N)NCCC[C@@H](N[*:1])C(=O)[*:2])cc1; Ala(imidazol-2-yl) = N[C@@H](Cc1ncc[nH]1)C(=O)O; Ala(morpholin-4-yl) = N[C@@H](CN1CCOCC1)C(=O)O; Benzoyl(3-OCH2COOH) = O=C(O)COc1cccc(C(=O)*)c1; Phe(3-CONH2) = NC(=O)c1cccc(C[C@H](N)C(=O)O)c1; Benzoyl(4-Ph) = O=C(c1ccc(-c2ccccc2)cc1)*; Bip = N[C@@H](Cc1ccc(-c2ccccc2)cc1)C(=O)O; X3 = O=C(O)c1cccc(Oc2ccccc2C(=O)*)c1; 2Pal = N[C@@H](Cc1ccccn1)C(=O)O; Cha = N[C@@H](CC1CCCCC1)C(=O)O; Tle = CC(C)(C)[C@H](N)C(=O)O; ξP = O=C(O)C1CCCN1; Sar = CNCC(=O)O
Target: TNFα (Homo sapiens, UniProt P01375)
Assay: TNF-Induced HEK-Blue Assay
Assay type: cell-based
[1] = HEK-Blue-CD40L cells, NF-kB-driven secreted alkaline phosphatase reporter, TNFα 0.5 ng/ml, 18 h, read-out: TNF induced HEK-Blue assay IC50 value

Sequence of TNFα (P01375 77-233 limits assumed): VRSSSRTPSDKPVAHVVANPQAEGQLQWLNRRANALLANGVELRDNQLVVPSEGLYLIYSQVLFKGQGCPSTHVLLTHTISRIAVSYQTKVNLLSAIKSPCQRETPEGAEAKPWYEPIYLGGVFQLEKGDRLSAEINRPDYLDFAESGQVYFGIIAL

| IC50 [1] | Structure (SMILES) | IC50 |
| --- | --- | --- |
| 50 to 200 nM | CC[C@H](C)[C@@H]1NC(=O)[C@@H](CCCNC(=N)N)NC(=O)[C@H](CC(=O)O)NC(=O)[C@@H]2CCCN2C(=O)CN(C)C(=O)[C@H](Cc2ccc(-c3ccc(NC(C)=O)cc3)cc2)NC(=O)[C@H](Cc2ccc(-c3ccccc3)cc2)NC(=O)[C@H](C(C)(C)C)NC(=O)CSC[C@@H](C(=O)NCC(N)=O)NC(=O)[C@H](CC(C)C)NC(=O)[C@H](Cc2ccc(O)cc2)NC(=O)[C@H](C(C)C)NC(=O)[C@@H]2CCCN2C1=O [Example 267] ({CH2CO}-[Tle][Bip][Bip(4'-NHAc)][Sar]PD[dR]IPVYLCG-NH2; thioether N-13) | – |
| < 50 nM | CC(C)C[C@@H]1NC(=O)[C@H](CCCNC(=N)N)NC(=O)[C@H](C(C)C)NC(=O)[C@@H]2CCCN2C(=O)[C@H](C(C)C)NC(=O)[C@@H](CCCNC(=N)NCc2cccc(O)c2)NC(=O)[C@H](CC(=O)O)NC(=O)[C@@H]2CCCN2C(=O)CN(C)C(=O)[C@H](Cc2ccc(-c3ccc(NC(=O)c4ccc(CC(=O)O)cc4)cc3)cc2)NC(=O)[C@H](Cc2ccc(-c3ccccc3)cc2)NC(=O)[C@H](CN2CCOCC2)NC(=O)CSC[C@@H](C(=O)NCC(N)=O)NC1=O [Example 567] ({CH2CO}-[Ala(morpholin-4-yl)][Bip][Bip(4'-NHCO-C6H4-4-CH2COOH)][Sar]PD[dArg(ω-(3-HO-benzyl))]VPVRLCG-NH2; thioether N-13) | – |
| < 50 nM | CC(C)C[C@@H]1NC(=O)[C@H](Cc2ncc[nH]2)NC(=O)[C@H](C(C)C)NC(=O)[C@@H]2CCCN2C(=O)[C@H](C(C)C)NC(=O)[C@@H](CCCNC(=N)NCc2cccc(CNC(=N)N)c2)NC(=O)[C@H](CC(=O)O)NC(=O)[C@H](Cc2ccccn2)NC(=O)CN(C)C(=O)[C@H](Cc2ccc(-c3ccc(NC(=O)c4cccc(OCC(=O)O)c4)cc3)cc2)NC(=O)[C@H](Cc2ccc(-c3ccc(C(=O)O)cc3)cc2)NC(=O)[C@H](CC2CCCCC2)NC(=O)CSC[C@@H](C(=O)NCC(N)=O)NC1=O [Example 560] ({CH2CO}-[Cha][Bip(4'-COOH)][Bip(4'-NH)](Benzoyl(3-OCH2COOH))[Sar][2Pal]D[dArg(Nω-CH2C6H4-3-CH2Gua)]VPV[Ala(imidazol-2-yl)]LCG-NH2; thioether N-13) | – |
| 50 to 200 nM | CC[C@H](C)[C@@H]1NC(=O)[C@@H](CCCNC(=N)N)NC(=O)[C@H](CC(=O)O)NC(=O)[C@H](Cc2cnc[nH]2)NC(=O)CN(C)C(=O)[C@H](Cc2ccc(-c3ccc(NC(=O)c4ccccc4Oc4cccc(C(=O)O)c4)cc3)cc2)NC(=O)[C@H](Cc2ccc(-c3ccccc3)cc2)NC(=O)[C@H](CC2CCCCC2)NC(=O)CSC[C@@H](C(=O)NCC(N)=O)NC(=O)[C@H](CC(C)C)NC(=O)[C@H](Cc2cnc[nH]2)NC(=O)[C@H](C(C)C)NC(=O)[C@@H]2CCCN2C1=O [Example 354] ({CH2CO}-[Cha][Bip][Bip(4'-NH)](X3)[Sar]HD[dR]IPVHLCG-NH2; thioether N-13) | – |
| 200 to 2000 nM | CC(=O)Nc1ccc(-c2ccc(C[C@@H]3NC(=O)[C@H](Cc4ccc(-c5ccc(C(=O)O)cc5)cc4)NC(=O)[C@H](CN4CCOCC4)NC(=O)CSC[C@@H](C(=O)NCC(N)=O)NC(=O)[C@H](CC(C)C)NC(=O)[C@H](Cc4cccc(C(N)=O)c4)NC(=O)[C@H](C(C)C)NC(=O)[C@@H]4CCCN4C(=O)[C@H](C(C)C)NC(=O)[C@@H](CCCNC(=N)N)NC(=O)[C@H](CC(=O)O)NC(=O)[C@@H]4CCCN4C(=O)CN(C)C3=O)cc2)cc1 [Example 313] ({CH2CO}-[Ala(morpholin-4-yl)][Bip(4'-COOH)][Bip(4'-NHAc)][Sar]PD[dR]VPV[Phe(3-CONH2)]LCG-NH2; thioether N-13) | – |

Continued, molecule first:

| Structure (SMILES) | IC50 [1] | IC50 |
| --- | --- | --- |
| CC(C)C[C@@H]1NC(=O)[C@H](CCCNC(=N)N)NC(=O)[C@H](C(C)C)NC(=O)[C@@H]2CCCN2C(=O)[C@H](C(C)C)NC(=O)[C@@H](CCCNC(=N)NCCc2ccc(C#N)cc2)NC(=O)[C@H](CC(=O)O)NC(=O)[C@@H]2CCCN2C(=O)CN(C)C(=O)[C@H](Cc2ccc(-c3ccc(NC(=O)c4nn(CC(=O)O)c5ccccc45)cc3)cc2)NC(=O)[C@H](Cc2ccc(-c3ccccc3)cc2)NC(=O)[C@H](CN2CCOCC2)NC(=O)CSC[C@@H](C(=O)NCC(N)=O)NC1=O [Example 428] ({CH2CO}-[Ala(morpholin-4-yl)][Bip][Bip(4'-NH)](Indazole3carbonyl(1-CH2COOH))[Sar]PD[X30]VPVRLCG-NH2; thioether N-13) | – | 50 to 200 nM |
| CC(C)C[C@@H]1NC(=O)[C@H](CCCNC(=N)N)NC(=O)[C@H](C(C)C)NC(=O)C2CCCN2C(=O)[C@H](C(C)C)NC(=O)[C@@H](CCCNC(=N)NCCc2ccc(O)c(O)c2)NC(=O)[C@H](CC(=O)O)NC(=O)[C@@H]2CCCN2C(=O)CN(C)C(=O)[C@H](Cc2ccc(-c3ccc(NC(=O)c4nn(CC(=O)O)c5ccccc45)cc3)cc2)NC(=O)[C@H](Cc2ccc(-c3ccccc3)cc2)NC(=O)[C@H](CN2CCOCC2)NC(=O)CSC[C@@H](C(=O)NCC(N)=O)NC1=O (some centres unmarked) [Example 410] ({CH2CO}-[Ala(morpholin-4-yl)][Bip][Bip(4'-NH)](Indazole3carbonyl(1-CH2COOH))[Sar]PD[X83]V[ξP]VRLCG-NH2; thioether N-13) | – | 200 to 2000 nM |
| CC[C@H](C)[C@@H]1NC(=O)[C@@H](CCCNC(=N)N)NC(=O)[C@H](CC(=O)O)NC(=O)[C@H](Cc2cnc[nH]2)NC(=O)CN(C)C(=O)[C@H](Cc2ccc(-c3ccc(NC(=O)c4ccc(-c5ccccc5)cc4)cc3)cc2)NC(=O)[C@H](Cc2ccc(-c3ccccc3)cc2)NC(=O)[C@H](CC2CCCCC2)NC(=O)CSC[C@@H](C(=O)NCC(N)=O)NC(=O)[C@H](CC(C)C)NC(=O)[C@H](Cc2cnc[nH]2)NC(=O)[C@H](C(C)C)NC(=O)[C@@H]2CCCN2C1=O [Example 307] ({CH2CO}-[Cha][Bip][Bip(4'-NH)](Benzoyl(4-Ph))[Sar]HD[dR]IPVHLCG-NH2; thioether N-13) | 50 to 200 nM | – |

Reference: US20250145665A1, “MACROCYCLIC PEPTIDES USEFUL AS MODULATORS OF TNF ALPHA” (Bristol-Myers Squibb Company, priority 2023, published 2025)
